PubChem BioAssay (NCI)
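Exposure lasted 48 hours, with cells grown in 96-well plates and compounds tested at five concentrations. TGI: concentration producing complete growth inhibition.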

Assays:
Experiment in all cases: inhibition of tumour cell growth, NCI panel, 48 h
LXFL 529 NSCLC = system: LXFL 529 NSCLC
SK-OV-3 ovarian = system: SK-OV-3 ovarian
UACC-257 melanoma = system: UACC-257 melanoma
UACC-62 melanoma = system: UACC-62 melanoma
LOX IMVI melanoma = system: LOX IMVI melanoma
ACHN renal = system: ACHN renal
NCI-H226 lung = system: NCI-H226 lung
NCI-H23 lung = system: NCI-H23 lung
SF-295 CNS = system: SF-295 CNS
M19-MEL melanoma = system: M19-MEL melanoma
OVCAR-4 ovarian = system: OVCAR-4 ovarian
SNB-19 CNS = system: SNB-19 CNS
HOP-62 NSCLC = system: HOP-62 NSCLC
HCT-15 colon = system: HCT-15 colon
SW-620 colon = system: SW-620 colon
CCRF-CEM leukemia = system: CCRF-CEM leukemia
HCT-116 colon = system: HCT-116 colon
M14 melanoma = system: M14 melanoma
HOP-18 NSCLC = system: HOP-18 NSCLC
DMS 114 small cell lung = system: DMS 114 small cell lung
COLO 205 colon = system: COLO 205 colon
OVCAR-3 ovarian = system: OVCAR-3 ovarian
KM12 colon = system: KM12 colon
NCI-H460 lung = system: NCI-H460 lung
XF 498 CNS = system: XF 498 CNS
K-562 leukemia = system: K-562 leukemia
HL-60(TB) leukemia = system: HL-60(TB) leukemia
HT29 colon = system: HT29 colon
SNB-78 CNS = system: SNB-78 CNS
SF-268 CNS = system: SF-268 CNS
SN12C renal = system: SN12C renal
HCC-2998 colon = system: HCC-2998 colon
SK-MEL-5 melanoma = system: SK-MEL-5 melanoma
CAKI-1 renal = system: CAKI-1 renal
A498 renal = system: A498 renal
KM20L2 colon = system: KM20L2 colon
SNB-75 CNS = system: SNB-75 CNS
SK-MEL-28 melanoma = system: SK-MEL-28 melanoma
MALME-3M melanoma = system: MALME-3M melanoma
RXF 393 renal = system: RXF 393 renal
DLD-1 colon = system: DLD-1 colon
DMS 273 small cell lung = system: DMS 273 small cell lung
HOP-92 NSCLC = system: HOP-92 NSCLC
SR leukemia = system: SR leukemia
OVCAR-5 ovarian = system: OVCAR-5 ovarian
A549 NSCLC = system: A549 NSCLC
SF-539 CNS = system: SF-539 CNS
U251 CNS = system: U251 CNS
TK-10 renal = system: TK-10 renal
MOLT-4 leukemia = system: MOLT-4 leukemia
IGROV1 ovarian = system: IGROV1 ovarian
RPMI-8226 leukemia = system: RPMI-8226 leukemia
OVCAR-8 ovarian = system: OVCAR-8 ovarian
EKVX NSCLC = system: EKVX NSCLC
786-0 renal = system: 786-0 renal
SK-MEL-2 melanoma = system: SK-MEL-2 melanoma
NCI-H522 lung = system: NCI-H522 lung
UO-31 renal = system: UO-31 renal
RXF-631 renal = system: RXF-631 renal

## COc1cc(/C=C2\CCC(C)(CN(C)C)C2=O)cc(OC)c1OC (centres undefined)
LXFL 529 NSCLC
  TGI: > 100 µM
SK-OV-3 ovarian
  TGI: > 100 µM
UACC-257 melanoma
  TGI: > 100 µM
UACC-62 melanoma
  TGI: > 100 µM
LOX IMVI melanoma
  TGI: > 100 µM
ACHN renal
  TGI: > 100 µM
NCI-H226 lung
  TGI: > 100 µM
NCI-H23 lung
  TGI: > 100 µM
SF-295 CNS
  TGI: > 100 µM
M19-MEL melanoma
  TGI: > 100 µM
OVCAR-4 ovarian
  TGI: > 100 µM
SNB-19 CNS
  TGI: > 100 µM
HOP-62 NSCLC
  TGI: > 100 µM
HCT-15 colon
  TGI: > 100 µM
SW-620 colon
  TGI: > 100 µM
CCRF-CEM leukemia
  TGI: > 100 µM
HCT-116 colon
  TGI: > 100 µM
M14 melanoma
  TGI: > 100 µM
HOP-18 NSCLC
  TGI: > 100 µM
DMS 114 small cell lung
  TGI: > 100 µM
COLO 205 colon
  TGI: > 100 µM
OVCAR-3 ovarian
  TGI: > 100 µM
KM12 colon
  TGI: > 100 µM
NCI-H460 lung
  TGI: > 100 µM
XF 498 CNS
  TGI: > 100 µM
K-562 leukemia
  TGI: > 100 µM
HL-60(TB) leukemia
  TGI: > 67.2 µM
HT29 colon
  TGI: > 100 µM
SNB-78 CNS
  TGI: 99.4 µM
SF-268 CNS
  TGI: > 100 µM
SN12C renal
  TGI: > 100 µM
HCC-2998 colon
  TGI: > 100 µM
SK-MEL-5 melanoma
  TGI: > 100 µM
CAKI-1 renal
  TGI: > 100 µM
A498 renal
  TGI: > 100 µM
KM20L2 colon
  TGI: > 100 µM
SNB-75 CNS
  TGI: > 100 µM
SK-MEL-28 melanoma
  TGI: > 100 µM
MALME-3M melanoma
  TGI: > 100 µM
RXF 393 renal
  TGI: > 100 µM
DLD-1 colon
  TGI: > 100 µM
DMS 273 small cell lung
  TGI: > 100 µM
HOP-92 NSCLC
  TGI: > 100 µM
SR leukemia
  TGI: > 100 µM
OVCAR-5 ovarian
  TGI: > 100 µM
A549 NSCLC
  TGI: > 100 µM
SF-539 CNS
  TGI: > 100 µM
U251 CNS
  TGI: > 100 µM
TK-10 renal
  TGI: > 100 µM
MOLT-4 leukemia
  TGI: > 100 µM
IGROV1 ovarian
  TGI: > 100 µM
RPMI-8226 leukemia
  TGI: > 72.9 µM
OVCAR-8 ovarian
  TGI: > 100 µM
EKVX NSCLC
  TGI: > 88.3 µM
786-0 renal
  TGI: > 100 µM
SK-MEL-2 melanoma
  TGI: > 100 µM
NCI-H522 lung
  TGI: > 100 µM
UO-31 renal
  TGI: > 100 µM

## Cn1c(C2CCCc3c2c2ccccc2n3C)cc2ccccc21 (centres undefined)
LXFL 529 NSCLC
  TGI: > 318 µM
SK-OV-3 ovarian
  TGI: > 318 µM
UACC-257 melanoma
  TGI: > 318 µM
UACC-62 melanoma
  TGI: > 318 µM
LOX IMVI melanoma
  TGI: > 318 µM
ACHN renal
  TGI: > 318 µM
NCI-H226 lung
  TGI: > 318 µM
NCI-H23 lung
  TGI: > 318 µM
SF-295 CNS
  TGI: > 318 µM
M19-MEL melanoma
  TGI: > 318 µM
SNB-19 CNS
  TGI: > 318 µM
HOP-62 NSCLC
  TGI: > 318 µM
HCT-15 colon
  TGI: > 318 µM
SW-620 colon
  TGI: > 318 µM
CCRF-CEM leukemia
  TGI: > 318 µM
RXF-631 renal
  TGI: > 318 µM
HCT-116 colon
  TGI: > 318 µM
HOP-18 NSCLC
  TGI: > 318 µM
DMS 114 small cell lung
  TGI: > 318 µM
COLO 205 colon
  TGI: > 318 µM
OVCAR-3 ovarian
  TGI: > 318 µM
KM12 colon
  TGI: > 318 µM
NCI-H460 lung
  TGI: > 318 µM
K-562 leukemia
  TGI: > 318 µM
HL-60(TB) leukemia
  TGI: > 318 µM
HT29 colon
  TGI: > 318 µM
SF-268 CNS
  TGI: > 318 µM
SN12C renal
  TGI: > 318 µM
HCC-2998 colon
  TGI: > 318 µM
SK-MEL-5 melanoma
  TGI: > 318 µM
CAKI-1 renal
  TGI: > 318 µM
KM20L2 colon
  TGI: > 318 µM
SK-MEL-28 melanoma
  TGI: > 318 µM
MALME-3M melanoma
  TGI: > 318 µM
RXF 393 renal
  TGI: > 318 µM
DLD-1 colon
  TGI: > 318 µM
DMS 273 small cell lung
  TGI: > 318 µM
HOP-92 NSCLC
  TGI: 299 µM
SR leukemia
  TGI: > 318 µM
OVCAR-5 ovarian
  TGI: > 318 µM
A549 NSCLC
  TGI: > 318 µM
SF-539 CNS
  TGI: > 318 µM
U251 CNS
  TGI: > 318 µM
TK-10 renal
  TGI: > 318 µM
MOLT-4 leukemia
  TGI: > 318 µM
IGROV1 ovarian
  TGI: > 318 µM
OVCAR-8 ovarian
  TGI: > 318 µM
EKVX NSCLC
  TGI: > 318 µM
786-0 renal
  TGI: > 318 µM
SK-MEL-2 melanoma
  TGI: > 318 µM
NCI-H522 lung
  TGI: 142 µM

## CCCCCCCCCCCCC(=O)CCCCC(=O)O
LXFL 529 NSCLC
  TGI: 35.3 µM
SK-OV-3 ovarian
  TGI: > 100 µM
UACC-257 melanoma
  TGI: > 100 µM
UACC-62 melanoma
  TGI: 36.1 µM
LOX IMVI melanoma
  TGI: 46.6 µM
ACHN renal
  TGI: 73.7 µM
NCI-H226 lung
  TGI: 59.1 µM
NCI-H23 lung
  TGI: > 100 µM
SF-295 CNS
  TGI: 51.2 µM
M19-MEL melanoma
  TGI: 38.9 µM
OVCAR-4 ovarian
  TGI: > 100 µM
SNB-19 CNS
  TGI: > 100 µM
HOP-62 NSCLC
  TGI: 41.9 µM
SW-620 colon
  TGI: > 100 µM
CCRF-CEM leukemia
  TGI: > 100 µM
RXF-631 renal
  TGI: 38.6 µM
HCT-116 colon
  TGI: 54.6 µM
M14 melanoma
  TGI: 33.6 µM
HOP-18 NSCLC
  TGI: 59.3 µM
DMS 114 small cell lung
  TGI: 42 µM
COLO 205 colon
  TGI: 32.7 µM
OVCAR-3 ovarian
  TGI: > 100 µM
KM12 colon
  TGI: 29.5 µM
NCI-H460 lung
  TGI: 39.1 µM
K-562 leukemia
  TGI: 39.8 µM
HL-60(TB) leukemia
  TGI: 33.4 µM
HT29 colon
  TGI: 30.7 µM
SNB-78 CNS
  TGI: > 100 µM
SF-268 CNS
  TGI: 71.6 µM
SN12C renal
  TGI: 55.8 µM
SK-MEL-5 melanoma
  TGI: 34.1 µM
CAKI-1 renal
  TGI: > 100 µM
A498 renal
  TGI: 36.3 µM
SNB-75 CNS
  TGI: 71.1 µM
SK-MEL-28 melanoma
  TGI: 46.5 µM
MALME-3M melanoma
  TGI: 43.6 µM
RXF 393 renal
  TGI: > 100 µM
DLD-1 colon
  TGI: 38.1 µM
DMS 273 small cell lung
  TGI: > 100 µM
HOP-92 NSCLC
  TGI: 41.5 µM
SR leukemia
  TGI: 47 µM
OVCAR-5 ovarian
  TGI: 35.8 µM
A549 NSCLC
  TGI: 44.6 µM
SF-539 CNS
  TGI: 36.6 µM
U251 CNS
  TGI: 79 µM
TK-10 renal
  TGI: > 100 µM
MOLT-4 leukemia
  TGI: 35.7 µM
IGROV1 ovarian
  TGI: 35.3 µM
RPMI-8226 leukemia
  TGI: 40.8 µM
OVCAR-8 ovarian
  TGI: 39.7 µM
EKVX NSCLC
  TGI: > 100 µM
786-0 renal
  TGI: 84.7 µM
SK-MEL-2 melanoma
  TGI: 47.4 µM
NCI-H522 lung
  TGI: 42.1 µM
UO-31 renal
  TGI: 60 µM
